According to publication PMC8962522, “Direct interaction of TrkA/CD44v3 is essential for NGF-promoted aggressiveness of breast cancer cells” (Journal of Experimental & Clinical Cancer Research : CR, 2022):
Entries after “also recorded” stand apart in the source; their conditions may differ.

Legend:
MDA-MB-231 cells = assay: Scratch/wound migration assay, MDA-MB-231; assay type: cell-based; details: peptide 50 ng/mL 30 min before NGF 100 ng/ml; 24 h, 0.1% FBS; siCD44v3 24 h after treatment
Protocol: Scratch/wound migration assays were performed using inserts (Ibidi, Germany). MDA-MB-231 cells (4 × 10^5 cells/mL) were seeded onto each side of the chamber and incubated overnight at 37 °C until they reached the subconfluent stage. Next, the inserts were removed, and the cells were rinsed and starved (1 mL of 0.1% FBS medium for 1 h). Images of the initial wound were obtained using an inverted microscope, and the cells were incubated with or without the peptide (scramble or P4; 50 ng/mL) for 30 min and stimulated with NGF (100 ng/ml). After 24 h, images (2/wound) were obtained of the same place on the wound as those initially taken. The distance between the 2 migration fronts was measured using ImageJ software.
Fig. 4 CD44v3 mimetic peptide 4 inhibits MDA-MB-231 breast cancer cell growth and migration/invasion. Clonogenic MDA-MB-231 cell growth was measured after 10 days in the presence of a scramble peptide (SP) or CD44v3 mimetic peptide (P4) (A, B). The elongation factor (length-to-width ratio) was assessed after 10 days in the presence or absence of NGF (C, D, E). Migration assays were performed using Ibidi devices 24 h after treatment (H, I). Invasion through collagen 1 was measured by the Transwell assay 16 h after treatment (J, K). Statistical analyses were performed using one-way ANOVA followed by Bonferroni’s posttest. […]

[1] = system: TrkA/CD44v3 complex in COS-7 cells expressing TrkA and CD44v3; assay: PLA TrkA/CD44v3 complex formation in COS-7 cells; assay type: cell-based, African green monkey (COS-7 cells); details: COS-7 expressing TrkA and CD44v3; NGF 100 ng/ml, 0, 5 and 30 min; 30 fields per condition, three experiments
Protocol: Cells (10,000 cells per well) were grown on acid-washed eight-well glass slides (Thermo Scientific) in the appropriate medium supplemented with 10% FBS for 24 h. After NGF treatment, paraformaldehyde (PAF)-fixed cells were incubated with 4% bovine serum albumin (BSA) or 5% FBS (for 1 h at 20 °C), followed by overnight incubation with primary antibodies (rabbit anti-TrkA or rabbit anti-IgG + mouse anti-pan-CD44; mouse anti-CD44v3; mouse anti-CD44v6; mouse anti-IgG2a; mouse anti-IgG2b; or mouse anti-IgG1). PLA was performed following the manufacturer’s instructions in the assay kit (Duolink PLA; Sigma–Aldrich). To obtain the correct representation of the PLA signal for each condition, 30 fields per condition were observed using a fluorescence microscope (Eclipse TiU; Nikon, Japan). The PLA signals (red dots) were automatically quantified using ImageJ software (with an in-house-developed plug-in). After PLA, statistical analyses were performed using GraphPad Prism software to determine the mean dot intensity in the cells.
Fig. 1 The C-terminal region of CD44 variant 3 binds to TrkA. A Schematic representation of the CD44 gene and protein structure. Alternative splicing leads to the expression of CD44 variants, thus the insertion of exon 8 leads to the expression of a CD44 protein containing variant 3 (CD44v3) and the insertion of exon 11 leads to the expression of a CD44 containing variant 6 (CD44v6) (B) TrkA/CD44v3 complex formation in COS-7 cells expressing TrkA and CD44v3 was detected by the proximity ligation assay (PLA), which was performed 0, 5 and 30 min after the initiation of NGF (100 ng/ml) treatment. The images represent signals detected by PLA. Quantification of the red spots was performed by ImageJ software (30 randomly chosen fields per condition of three different experiments). Statistical analyses were performed using one-way ANOVA followed by Bonferroni’s posttest. Error bars represent the standard error of the mean (S.E.M.); *** p < 0.001. ns, nonsignificant. C NGF and/or TrkA binding to CD44v3 was measured by microscale thermophoresis (MST). MST experiments were performed on whole cell extracts of COS-7 cells expressing CD44v3. […]
Fig. 2 The C-terminal region of CD44v3 and the His112 residue of TrkA are involved in the CD44v3/TrkA interaction. TrkA/CD44v3 complex association was detected by the proximity ligation assay (PLA) in wild-type TrkA- or TrkA_H112A- and CD44v3-expressing COS-7 cells. […] Representative images of signals detected by PLA (A) and their quantification (B). […] TrkA/CD44v3 complex association was detected by PLA in wild-type TrkA and CD44v3 wild type or CD44v3 deleted mutant Δ3 or Δ4 expressing COS-7 (D, E). […] Quantification of PLA was performed using ImageJ software (30 fields per condition of three different experiments). […]

Substance | effect on migration (wound closure) of MDA-MB-231 cells (MDA-MB-231 cells) | effect on TrkA/CD44v3 complex formation (PLA) in COS-7 cells [1]
NGF: recombinant human β-NGF (Alomone Labs, Israel) | the migration of MDA-MB-231 cells was increased, as indicated by complete wound closure 24 h after treatment | increased the PLA-detected TrkA/CD44v3 signal in the plasma membrane of COS-7 cells following NGF stimulation; also recorded: transient and decreased 30 min after NGF stimulation
IDDDEDFISST [Peptide 4, mimetic peptide 4 (…) corresponding to the C-terminal region of CD44v3] | completely blocked NGF-dependent wound closure | could decrease NGF-induced TrkA/CD44v3 complex formation in COS-7 cells
